Data: ChEMBL document CHEMBL6074691, “Discovery of 22(S)-23-phenyl-24-norchol-5-en-3β,22-diol (PFM046) as the first-in-class, steroidal, non-sulfated Liver X Receptor antagonist with anticancer activity” (Eur J Med Chem, 2025)
Calls of active or inactive are those of the source. No cut-off for these calls is given here.

Tests used:
[1] = system: Lewis lung carcinoma cell line; experiment: Antitumor activity against mouse Lewis lung carcinoma cell line assessed as reduction in cell number at 10 uM incubated for 72 hrs by trypan blue assay; type: functional, cell-based
[2] = system: B16-F1; experiment: Antitumor activity against mouse B16-F1 cells implanted in C57BL/6 mouse assessed as reduction in tumor volume at 300 to 400 ug, ip administered 5 days per week and measured every 2 to 3 days by caliper method; type: functional, organism-based; settings: dose 300-400 µg
[3] = system: Lewis lung carcinoma cell line; experiment: Antitumor activity against mouse Lewis lung carcinoma cell line implanted in C57BL/6 mouse assessed as reduction in tumor volume at 300 to 400 ug, ip administered 5 days per week and measured every 2 to 3 days by caliper method; type: functional, organism-based; settings: dose 300-400 µg
[4] = Kinetic solubility of compound in PBS at pH 7.4 by Rapidfire-MS/MS method; type: physicochemical; settings: buffer
[5] = Unbound fraction in human plasma by dialysis method; type: ADME, cell-free
[6] = Unbound fraction in mouse plasma by dialysis method; type: ADME, cell-free
[7] = Hepatic intrinsic clearance in human liver microsomes assessed per mg protein at 0.5 uM in presence of NADPH regenerating system by UHPLC-MS/MS method; type: ADME, Microsome; settings: read-out: CLH
[8] = Hepatic intrinsic clearance in mouse liver microsomes assessed per mg protein at 0.5 uM in presence of NADPH regenerating system by UHPLC-MS/MS method; type: ADME, Microsome; settings: read-out: CLH
[9] = Drug uptake in C57BL/6 mouse at 400 ug, ip measured after 1 hr by UHPLC-MS/MS analysis; type: ADME, organism-based; settings: in vivo, dose 400 µg, read-out: Drug uptake
[10] = Drug uptake in C57BL/6 mouse at 400 ug, ip measured after 3 hrs by UHPLC-MS/MS analysis; type: ADME, organism-based; settings: in vivo, dose 400 µg, read-out: Drug uptake
[11] = Drug uptake in C57BL/6 mouse at 400 ug, ip measured after 6 hrs by UHPLC-MS/MS analysis; type: ADME, organism-based; settings: in vivo, dose 400 µg, read-out: Drug uptake
[12] = Drug uptake in C57BL/6 mouse at 400 ug, ip measured after 24 hrs by UHPLC-MS/MS analysis; type: ADME, organism-based; settings: in vivo, dose 400 µg, read-out: Drug uptake
[13] = Cmax in C57BL/6 mouse at 400 ug, ip by UHPLC-MS/MS analysis; type: ADME, organism-based; settings: in vivo, dose 400 µg
[14] = Tmax in C57BL/6 mouse at 400 ug, ip by UHPLC-MS/MS analysis; type: ADME, organism-based; settings: in vivo, dose 400 µg
[15] = Clast in C57BL/6 mouse at 400 ug, ip by UHPLC-MS/MS analysis; type: ADME, organism-based; settings: in vivo, dose 400 µg
[16] = Tlast in C57BL/6 mouse at 400 ug, ip by UHPLC-MS/MS analysis; type: ADME, organism-based; settings: in vivo, dose 400 µg
[17] = AUClast in C57BL/6 mouse at 400 ug, ip by UHPLC-MS/MS analysis; type: ADME, organism-based; settings: in vivo, dose 400 µg
[18] = system: U-937; experiment: Downregulation of SREBP-1 expression in human U-937 cells incubated for 72 hrs by qRT-PCR analysis; type: functional, cell-based
[19] = system: U-937; experiment: Downregulation of SCD1 expression in human U-937 cells incubated for 72 hrs by qRT-PCR analysis; type: functional, cell-based
[20] = system: U-937; experiment: Downregulation of FASN expression in human U-937 cells incubated for 72 hrs by qRT-PCR analysis; type: functional, cell-based
[21] = system: U-937; experiment: Upregulation of ABCA1 expression in human U-937 cells incubated for 72 hrs by qRT-PCR analysis; type: functional, cell-based
[22] = target: T1, Oxysterols receptor LXR-alpha (Homo sapiens, UniProt Q13133); experiment: Antagonist activity at LXRalpha (unknown origin) by TR-FRET assay
T1 sequence (Q13133 whole entry): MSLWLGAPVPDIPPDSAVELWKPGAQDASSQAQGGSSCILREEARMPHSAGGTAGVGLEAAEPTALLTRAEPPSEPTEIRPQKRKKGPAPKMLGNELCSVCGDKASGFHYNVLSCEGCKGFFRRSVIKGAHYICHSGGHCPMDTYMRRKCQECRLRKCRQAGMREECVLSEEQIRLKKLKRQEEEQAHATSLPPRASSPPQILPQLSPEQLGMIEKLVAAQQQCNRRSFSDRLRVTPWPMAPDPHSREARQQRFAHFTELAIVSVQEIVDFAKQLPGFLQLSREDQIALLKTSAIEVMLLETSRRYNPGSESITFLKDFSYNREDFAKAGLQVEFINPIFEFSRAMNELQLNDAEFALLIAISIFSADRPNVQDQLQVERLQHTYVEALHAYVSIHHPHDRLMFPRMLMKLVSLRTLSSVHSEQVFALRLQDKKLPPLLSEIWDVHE

[23] = Observed AUC infinity in C57BL/6 mouse at 400 ug, ip by UHPLC-MS/MS analysis; type: ADME, organism-based; settings: in vivo, dose 400 µg
[24] = system: Mus musculus; experiment: Observed extrapolated AUC in C57BL/6 mouse at 400 ug, ip by UHPLC-MS/MS analysis; type: ADME, organism-based; settings: in vivo, at 400 µg
[25] = target: T1, Oxysterols receptor LXR-alpha; experiment: Antagonist activity at LXRalpha (unknown origin)

| Compound | Activity [2] | Activity [3] | Kinetic_solubility [4] | Fu [5] [%] | Fu [6] [%] | microsomal CLint at 0.5 µM [7] [µL/min/mg] | microsomal CLint at 0.5 µM [8] [µL/min/mg] | concentration at 1 h [9] [µg/mL] | concentration at 3 h [10] [µg/mL] | concentration at 6 h [11] [µg/mL] | Cmax [13] [µg/mL] | Tmax [14] [h] | Clast [15] [µg/mL] | Tlast [16] [h] | AUC(0-t) [17] [µg·h/mL] | IC50 [22] [µM] | IC50 [25] [µM] | further results |
| --- | --- | --- | --- | --- | --- | --- | --- | --- | --- | --- | --- | --- | --- | --- | --- | --- | --- | --- |
| C[C@@H]([C@H]1CC[C@H]2[C@@H]3CC=C4C[C@@H](O)CC[C@]4(C)[C@H]3CC[C@]12C)[C@@H](O)Cc1ccccc1 | Active | Active | NotTraceable | < 1 | < 1 | < 9.9 | 45.8 | 0.0689 | 0.109 | 0.11 | 0.174 | 6 | 0.167 | 24 | 3.07 | – | – | Activity [1]: Active; concentration at 24 h [12]: 0.167 µg/mL; Activity [18]: Active; Activity [19]: Active; Activity [20]: Active; Activity [21]: Active |
| CC(C)[C@@H](O)CC[C@@H](C)[C@H]1CC[C@H]2[C@@H]3CC=C4C[C@@H](OS(=O)(=O)O)CC[C@]4(C)[C@H]3CC[C@]12C | – | – | – | – | – | – | – | – | – | – | – | – | – | – | – | 0.15 | – | – |
| CC(C)CC[C@H](O)[C@@H](C)[C@H]1CC[C@H]2[C@@H]3CC=C4C[C@@H](OS(=O)(=O)[O-])CC[C@]4(C)[C@H]3CC[C@]12C.[Na+] | Active | Active | NotTraceable | < 1 | < 1 | 26.4 | 17.2 | 3.17 | 0.363 | 0.0652 | 3.17 | 1 | 0.0652 | 6 | 4.69 | – | – | AUC(0-inf) [23]: 4.8 µg·h/mL; %AUCextra [24]: 2.5% |
| CC(C)CCC[C@@H](C)[C@H]1CC[C@H]2[C@@H]3C[C@@H]4O[C@@]45C[C@@H](OS(=O)(=O)O)CC[C@]5(C)[C@H]3CC[C@]12C | – | – | – | – | – | – | – | – | – | – | – | – | – | – | – | – | 2 | – |
| CC(C)CCC[C@@H](C)[C@H]1CC[C@H]2[C@@H]3C(=O)C=C4C[C@@H](OS(=O)(=O)O)CC[C@]4(C)[C@H]3CC[C@]12C | – | – | – | – | – | – | – | – | – | – | – | – | – | – | – | – | 5 | – |
| CC(C)[C@H](CC[C@@H](C)[C@H]1CC[C@H]2[C@@H]3CC=C4C[C@@H](O)CC[C@]4(C)[C@H]3CC[C@]12C)OS(=O)(=O)O | – | – | – | – | – | – | – | – | – | – | – | – | – | – | – | 0.31 | – | – |
